“And” between values parts separate entries of the source, which are not always exact repeats. Identical values can stand only once.
Legend:
CpomOrco^Q417H = CpomOrco^Q417H (Cydia pomonella, UniProt H9A5M2, Q417H); assay: Calcium imaging (Fluo-4) of HEK293A cells transfected with mutagenized CpomOrco^Q417H, VUAA1 stimulation; format: cell-based; settings: for EC50: EC50, HEK293A; for Hill coefficient / maximum response (Hill fit of calcium response amplitudes): HEK293A
Procedure: (§1) HEK293 cells lines (HEK293A/HEK293T) were grown in HEK cell media [Dulbecco's modified Eagle's medium containing 10% fetal bovine serum (MP Biomedicals, Solon, OH, USA), 2.0 mM L-glutamine, and 100 µg/mL penicillin/streptomycin (Invitrogen)] at 37 °C and 5% CO2. To test transient expression of wild type CpomOrco and CpomOrco^Q417H variant for calcium imaging and patch-clamp recording, 35-mm petri dishes containing semi-confluent HEK293A cells were transiently transfected. Cells were transfected with 0.6 µg of pcDNA40-DEST carrying the coding sequence of the CpomOrco variant (depending on the experiments). To report expression for calcium imaging experiments, 0.6 µg of a separate plasmid DNA [pEBFP2-Nuc, a gift from Robert Campbell (Addgene plasmid # 1489352)] carrying the coding sequence for a blue fluorescent protein (EBFP) was co-transfected. To report expression in patch-clamp recordings, 1.0 µg of a separate plasmid DNA (pXOOM, Clontech, Mountain View, CA, USA) carrying the coding sequence for a green fluorescent protein (GFP) was co-transfected. Expressions of fluorescent reporter genes were under the regulation of the same promoter for Cpom-genes (CMV). For specific experiments, co-transfections were conducted combining an additional 1.2 µg of pcDNA40-DEST/CpomOR3 or pcDNA40-DEST/CpomOR6a, as we previously described. Co-transfections with CpomOR3 were performed for dose–response experiments to pear ester: CpomOR3 was co-expressed with CpomOrco variants by the use of HEK293T (Fig. 3b); given the reported functional co-expression data of the CpomOrco + OR3 heteromers by the use of these specific cells. In brief, transfection DNAs were dissolved in 100 µL sterile DMEM, mixed with 3.0 µL Calfectin (SignaGen, Rockville, MD, USA) following the recommended protocol. Transfections were conducted overnight for up to 18 h, HEK cell media was replaced with 2.0 mL fresh media to incubate cells at 37 °C for up to 6–8 h, at which point part of the cell culture was spread in the middle of a 35-mm plate as individual cells or small clusters and rinsed at the sides with 2.0 mL fresh HEK media. After splitting, cells were allowed to recover for at least 1 day prior to calcium imaging.
Activation of HEK293 cells transfected with CpomOrco variants was tested using the same procedures we previously described. Petri dishes were incubated for 1 h at room temperature in 1.0 mL HEK Ca^++ Ringer (mM: 140 NaCl, 5.0 KCl, 2.0 CaCl2, 10 HEPES, pH 7.4) containing the fluorescent calcium indicator Fluo-4AM (Invitrogen) at 5–15 µM prepared with 0.2–0.06% Pluronic F-127 (Invitrogen). To monitor intracellular pH, HEK293A cells were loaded with 10.0 µL BCECF dye (Anaspec, Fremont, CA).
As reported in Cattaneo et al.[14], the buffer was removed after incubation, cells were rinsed with 4.0 mL fresh HEK Ca^++ Ringer and placed on the stage of an inverted microscope (Olympus IX-71, Olympus Corp., Tokyo, Japan) equipped with a cooled CCD camera (ORCA R2, Hamamatsu, Hamamatsu City, Japan). Cells were continuously superfused with Ca^++ Ringer using two gravity fed perfusion contours. The […] contour washing the cells (~ 250 µL/min) was switched rapidly to the stimulus contour using a multi-channel rapid solution changer (RSC-160, Bio-Logic, Claix, France) under the software control of Clampex 9 (Molecular Devices, Sunnyvale, CA, USA).
Fluorescence imaging was performed using settings optimized for Imaging Workbench 6 software (INDEC BioSystems, Santa Clara, CA, USA)[14]. The non-responsive cells were not included in these analyses. Each cell was assigned a region of interest (ROI) and changes in fluorescence intensity within each ROI were measured and expressed as the fractional change in fluorescence intensity (dF). Stored time series image stacks were analysed off-line using Imaging Workbench 6, Clampfit 10.5 (Molecular Devices) and SigmaPlot 11 (Systat Software Inc., San Jose, CA, USA). Dose–response curves were approximated using Hill equation. […]

CpomOrco = CpomOrco (Cydia pomonella, UniProt H9A5M2); assay: Whole-cell voltage-clamp recordings of HEK293A cells transfected with CpomOrco, VUAA1; format: cell-based; settings: for EC50: EC50 (K1/2)
Procedure: as §1
Electrophysiological experiments were performed according with the same procedures we previously described. Patch pipettes were fabricated from borosilicate capillary glass (BF150-86–10, Sutter Instrument, CA, USA) using a Flaming-Brown micropipette puller (P-87, Sutter Instrument). Only patches with initial cell-attached seal resistance estimated higher than 1.0 GOhms were used in the experiments. Intracellular (pipette) solution for whole-cell experiments was KCl 140 mM, EGTA 1 mM, Hepes 5 mM, MES 5 mM, pH 8.0 or pH 5.5 (depending on the experiment) adjusted with either NaOH or HCl, standard Na^+ 140 mM. bath solution was usually NaCl 140 mM, EGTA 0.1 mM, Hepes 10 mM, pH 7.4 (adjusted with Tris-base or NaOH). VUAA1 doses (0–1000 µM) were added to the extracellular test solutions.
As described in methods of Cattaneo et al.[14], GFP positive HEK293A cells were visualized using either an Axiovert 100 inverted microscope (Carl Zeiss, Inc., München, Germany) equipped with a mercury vapour compressed-arc lamp (HBO100) coupled to widefield fluorescence filter set (1114–459, Carl Zeiss, Inc.) or Olympus IX-71 inverted microscope described above (Olympus Corp.). The Orco channel-mediated currents were investigated using whole-cell patch-clamp recordings. The currents were measured with a 200B patch-clamp amplifier (Molecular Devices) and a digital interface (Digidata 1320A, Molecular Devices), low pass filtered at 5.0 kHz, sampled at 1–2 kHz. Analysis of the data was carried out using pCLAMP 9.2/10.5 software (Molecular Devices) and SigmaPlot 11 (Systat Software Inc). […]

[1] = after 30 min incubation at low pHe = 4.7
[2] = intracellular pH = 5.5, extracellular pH 7.4, -50 mV
[3] = intracellular pH = 8.0, extracellular pH 7.4, -50 mV

CpomOrco, sequence (H9A5M2 entry or part of it): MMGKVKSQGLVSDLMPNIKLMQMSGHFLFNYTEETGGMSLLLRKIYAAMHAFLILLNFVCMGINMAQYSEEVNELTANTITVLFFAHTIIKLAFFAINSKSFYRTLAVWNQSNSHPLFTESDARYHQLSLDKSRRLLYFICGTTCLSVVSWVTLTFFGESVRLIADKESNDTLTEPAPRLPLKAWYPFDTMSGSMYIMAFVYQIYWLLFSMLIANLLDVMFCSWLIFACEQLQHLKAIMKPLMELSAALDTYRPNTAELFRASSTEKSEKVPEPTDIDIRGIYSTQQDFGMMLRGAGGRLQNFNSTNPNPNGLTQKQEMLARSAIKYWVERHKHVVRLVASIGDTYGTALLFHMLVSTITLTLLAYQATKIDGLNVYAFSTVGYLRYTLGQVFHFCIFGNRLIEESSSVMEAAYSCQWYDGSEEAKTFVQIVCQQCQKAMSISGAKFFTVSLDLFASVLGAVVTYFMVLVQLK
CpomOrco^Q417H, sequence (H9A5M2 entry or part of it Q417H): as the sequence (H9A5M2 entry or part of it) above, with Q417H counted along it

CCc1ccc(NC(=O)CSc2nnc(-c3cccnc3)n2CC)cc1 [VUAA1, acetamide,N-(4-ethylphenyl)-2-[[4-ethyl-5-(3-pyridinyl)-4H-1,2,4-triazol-3-yl]thio]-]
EC50 (CpomOrco^Q417H; [1]): ~263 µM
EC50 (CpomOrco^Q417H; control pH conditions (pH 7.4), Hill fit): ~261 µM and ~262 µM
Hill coefficient (CpomOrco^Q417H; [1]): ~ 2.2 ± 0.5
maximum response (Hill fit of calcium response amplitudes) (CpomOrco^Q417H; after 30 min incubation at low pHe = 4.7, n = 63, constraints applied to fit): ~ 1.8 ± 0.2 ∆F and 1.8 ∆F
Hill coefficient (CpomOrco^Q417H; control pH conditions (pH 7.4)): ~ 2.1 ± 1.9
maximum response (Hill fit of calcium response amplitudes) (CpomOrco^Q417H; control pH conditions (pH 7.4), N = 94 cells): ~ 3.9 ∆F and ~ 3.9 ± 1.3 ∆F and 3.9 ∆F
EC50 (CpomOrco; [2]): ~561 µM
EC50 (CpomOrco; [3]): ~403 µM
h (Hill equation) (CpomOrco; intracellular pH = 5.5): ~ 5 ± 3.9
number of cells sensitive to VUAA1 (CpomOrco; intracellular pH = 5.5, GFP positive cells tested): 3 out of 4
Imax (whole-cell current amplitude, Hill fit) (CpomOrco; [2]): ~ 196 pA and ~ 196 + -32 pA
h (Hill equation) (CpomOrco; intracellular pH = 8.0): ~ 4 ± 0.6
number of cells sensitive to VUAA1 (CpomOrco; intracellular pH = 8.0, GFP positive cells tested): 8 out of 13
Imax (whole-cell current amplitude, Hill fit) (CpomOrco; [3]): ~ 784 pA and ~ 784 ± 40 pA
